Legend:
[1] = test system: HCV NS3 protease; assay type: cell-based, hepatitis C virus; settings: HEK293 cells grown with or without BILN-2061 (0, 1 μM, or 10 μM)
Description: For testing of the drug-regulatable epitope tag concept by immunoblotting, a construct of linear fusions of PSD-95, HCV NS3 protease flanked on both sides by cleavage sites, an HA epitope tag, and the cyan fluorescent protein (CFP) was used.
For each construct, HEK293 cells were transfected with Lipofectamine 2000, grown with or without the NS3 protease inhibitor BILN-2061 (Lamarre et al., 2003), and immunoblotted after boiling/SDS lysis with anti-PSD-95 to differentiate uncleaved and cleaved products by molecular weight.
Experiments using the constructs of the disclosure were performed in transiently transfected mammalian cells by immunoblotting.

[2] = target: HCV NS3 protease (Hepatitis C virus genotype 1a, UniProt P27958); assay type: cell-based; settings: TimeSTAMPt; hippocampal neurons 18 DIV, 9 DPT
Description: (§1) Hippocampal neurons were dissected from postnatal day 0 or 1 rat pups and cultured in Neurobasal medium supplemented with B27 and glutamine. For immunoblotting experiments, neurons were transfected prior to plating using the Amaxa Nucleofector protocol. For other experiments, neurons were transfected at 7-10 DIV by calcium phosphate.
(§2) To recapitulate endogenous mechanisms of mRNA localization and translation, the 5′ and 3′ untranslated regions of each gene were included in all constructs.

[3] = target: HCV NS3 protease (Hepatitis C virus genotype 1a, UniProt P27958, T1080A); assay type: cell-based; settings: TimeSTAMPa; hippocampal neurons 18 DIV, 9 DPT
Description: as §1, §2

[4] = target: HSV-TimeSTAMPt-HA-dCaMKII (Hepatitis C virus genotype 1a, UniProt P27958); assay type: in vivo, Drosophila melanogaster; settings: adult flies, brains analyzed 6 hours after BILN-2061
Description: Homozyous transformed lines were established from single progeny of embryos injected with pUAST-HSV-TimeSTAMPt-HA-dCaMKII or pUAST-HSV-TimeSTAMPa-HA-dCaMKII. […] Male homozygotes with third-chromosome insertions were crossed to elav-GAL4; UAS-tubulin-GFP; + females, and the male elavGAL4/Y; UAS-tubulin-GFP/+; HSV-TimeSTAMP-HA-dCaMKII/+ progeny were used for experiments within 2 days post-eclosion.
For experiments involving HSV-TimeSTAMPt-HA-dCaMKII, flies were anesthesized by carbon dioxide, then a hole was punctured in the medial ocellus region using a glass micropipette with a 10 μm bore and a 25 nL drop of 2 mM BILN-2061 in 20% DMSO 5% Cremophor EL in Hank's buffered saline solution (HBSS) was placed over the region. […] For HSV-TimeSTAMPa-HA-dCaMKII, flies were starved for 12 hours with only water, then placed in a vial with an emulsion of 30% (w/v) yeast, 30% (v/v) glycerol, 30% (v/v) water, 5% green food coloring, 5% dimethylformamide, and 500 μM BILN-2061. […] For analysis, flies were decapitated and brains were simultaneously dissected and fixed in HBSS with 4% paraformaldehyde and 0.2% Triton X-100 for 40 minutes at room temperature. Brains were processed for immunocytochemistry by standard methods and imaged on a Zeiss LSM510 or LSM5Live confocal microscope.
Transgenic flies were generated expressing this fusion protein in all neurons.

[5] = test system: new protein synthesis in neurons; test: Dependence of TimeSTAMP tag appearance on new protein synthesis in neurons; assay type: cell-based, rat; settings: for HA-tagged Arc appearing after incubation in 10 μM BILN for 6 hours: Arc-TimeSTAMPa-HA neurons, 7 DIV, simultaneous treatment (cycloheximide 50 μg/mL or BDNF)
Description: as §1, §2

HCV NS3 protease (Hepatitis C virus genotype 1a, UniProt P27958), sequence (P27958 1027-1208): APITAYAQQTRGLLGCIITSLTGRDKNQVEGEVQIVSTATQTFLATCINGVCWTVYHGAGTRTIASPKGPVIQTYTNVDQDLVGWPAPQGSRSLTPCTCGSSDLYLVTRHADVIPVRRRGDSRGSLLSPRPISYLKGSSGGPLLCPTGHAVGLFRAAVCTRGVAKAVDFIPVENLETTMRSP
HSV-TimeSTAMPt-HA-dCaMKII, sequence (P27958 1027-1208): as above
HCV NS3 protease (Hepatitis C virus genotype 1a, UniProt P27958, T1080A), sequence (P27958 1027-1208 T1080A): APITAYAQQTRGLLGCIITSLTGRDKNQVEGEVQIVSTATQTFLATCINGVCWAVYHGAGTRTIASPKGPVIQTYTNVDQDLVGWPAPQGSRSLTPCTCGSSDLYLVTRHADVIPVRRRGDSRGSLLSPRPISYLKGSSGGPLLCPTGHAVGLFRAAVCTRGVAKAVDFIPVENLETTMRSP

COc1ccc2c(O[C@@H]3C[C@H]4C(=O)N[C@]5(C(=O)O)C[C@H]5/C=C\CCCCC[C@H](NC(=O)OC5CCCC5)C(=O)N4C3)cc(-c3csc(NC(C)C)n3)nc2c1 [BILN-2061]
Cleavage of constructs containing the NS3 domain alone without NS4A cofactor (immunoblot) [1]: inhibited
HA immunofluorescence induction [2]: 121 fold
HA immunofluorescence induction [3]: 20 fold
HSV labelling for newly synthesized dCaMKII in fly brain [4]: HSV labelling for newly synthesized dCaMKII is present in the mushroom bodies

C[C@@H]1C[C@@H]([C@H](O)CC2CC(=O)NC(=O)C2)C(=O)[C@@H](C)C1 [cycloheximide]
Synaptic HA staining of PSD-95-GFP-TimeSTAMPa-HA after 6 hours of BILN-2061 ([5]; 50 μg/mL cycloheximide, 18 DIV neurons, 9 DPT): No staining
HA-tagged Arc appearing after incubation in 10 μM BILN for 6 hours [5]: blocked

B1: BDNF: growth factor used for translational induction (protein, UniProt P23560 19-247, looked up)
Neurotrophic factor BDNF …: APMKEANIRGQGGLAYPGVRTHGTLESVNGPKAGSRGLTSLADTFEHVIEELLDEDQKVRPNEENNKDADLYTSRVMLSSQVPLEPPLLFLLEEYKNYLDAANMSMRVRRHSDPARRGELSVCDSISEWVTAADKKTAVDMSGGTVTVLEKVPVSKGQLKQYFYETKCNPMGYTKEGCRGIDKRHWNSQCRTTQSYVRALTMDSKKRIGWRFIRIDTSCVCTLTIKRGR
HA-tagged Arc appearing after incubation in 10 μM BILN for 6 hours [5]: increased

Reference: patent publication US8993256B2, “Fusion proteins and polynucleotide constructs to measure protein turn-over” (priority 2006, dated 2015)
